From patent US20070060636A1, “High enantiomeric purity dexanabinol for pharmaceutical compositions” (priority 2002, published 2007)

Assay: CREMOPHOR EL:ethanol formulations, dissolution and stability after dilution in saline
Assay type: physicochemical
Settings: for Stability following dilution in saline, Dilution 1/5 / Stability following dilution in saline, Dilution 1/10 / Stability following dilution in saline, Dilution 1/20: monitored 24 hours
Experimental: Once it was established that a cosolvent formulation made of CREMOPHOR EL® (polyoxyl 35 castor oil) and ethanol is appropriate to dissolve the drug, a matrix of such formulations was prepared at various concentrations (from 30 to 70% w/w of each ingredient) and with increasing amounts of dexanabinol of high enantiomeric purity (20, 50 and 100 mg/ml). The exact composition of these formulations is described in the left hand side of Table 5. The drug cosolvent concentrates were diluted at various ratios in saline and the stability of the drug in the resulting solutions was monitored for 24 hours.

[1] = 20 mg/ml in 30% CREMOPHOR EL/70% ethanol
[2] = 20 mg/ml in 50% CREMOPHOR EL/50% ethanol
[3] = 20 mg/ml in 70% CREMOPHOR EL/30% ethanol
[4] = 50 mg/ml in 30% CREMOPHOR EL/70% ethanol
[5] = 50 mg/ml in 50% CREMOPHOR EL/50% ethanol
[6] = 50 mg/ml in 70% CREMOPHOR EL/30% ethanol
[7] = 100 mg/ml in 30% CREMOPHOR EL/70% ethanol
[8] = 100 mg/ml in 50% CREMOPHOR EL/50% ethanol
[9] = 100 mg/ml in 70% CREMOPHOR EL/30% ethanol

In the case of `CCCCCCC(C)(C)c1cc(O)c2c(c1)OC(C)(C)[C@H]1CC=C(CO)C[C@H]21` [dexanabinol, 1,1-dimethylheptyl-(3S,4S)-7-hydroxy-Δ^6-tetrahydrocannabinol], the “amount of dexanabinol dissolved by CREMOPHOR EL:ethanol cosolvent formulations” value is reported as “at least 100 mg/ml”, the “Stability following dilution in saline, Dilution 1/5” value [1] is reported as “Stable” and the “Stability following dilution in saline, Dilution 1/10” value [1] is reported as “Stable”. For the same molecule, the “Stability following dilution in saline, Dilution 1/20” value [1] was “Stable”, the “Stability following dilution in saline, Dilution 1/5” value [2] was “Stable” and the “Stability following dilution in saline, Dilution 1/10” value [2] was “Stable”. The “Stability following dilution in saline, Dilution 1/20” value [2] was “Stable”, the “Stability following dilution in saline, Dilution 1/5” value [3] was “Stable” and the “Stability following dilution in saline, Dilution 1/10” value [3] was “Stable”. For the same molecule, the “Stability following dilution in saline, Dilution 1/20” value [3] was “Stable”, the “Stability following dilution in saline, Dilution 1/5: crystals appeared at” value [4] was “appeared at 2 hours” and the “Stability following dilution in saline, Dilution 1/10: crystals appeared at” value [4] was 2 h. The “Stability following dilution in saline, Dilution 1/20: crystals appeared at” value [4] was 2.5 h, the “Stability following dilution in saline, Dilution 1/5: stable at least” value [5] was “least 7 hours” and the “Stability following dilution in saline, Dilution 1/10: stable at least” value [5] was “least 4 hours”. The “Stability following dilution in saline, Dilution 1/20: stable at least” value [5] was no less than 7 h, the “Stability following dilution in saline, Dilution 1/5: stable at least” value [6] was “least 7 hours” and the “Stability following dilution in saline, Dilution 1/10: stable at least” value [6] was “least 7 hours”. The “Stability following dilution in saline, Dilution 1/20: stable at least” value [6] was no less than 7 h, the “stability after dilution with saline” value (50 mg/ml in 70:30 CREMOPHOR EL:ethanol, all ratios from 1:5 to 1:20) was “stable” and the “Stability following dilution in saline, Dilution 1/5: crystals appeared at” value [7] was 45 min. For the same molecule, the “Stability following dilution in saline, Dilution 1/10: crystals appeared at” value [7] was 0.917 h, the “Stability following dilution in saline, Dilution 1/20: crystals appeared at” value [7] was 1.5 h and the “Stability following dilution in saline, Dilution 1/5: crystals appeared at” value [8] was 90 min. The “Stability following dilution in saline, Dilution 1/10: crystals appeared at” value [8] was 1.5 h, the “Stability following dilution in saline, Dilution 1/20: crystals appeared at” value [8] was 1.5 h and the “Stability following dilution in saline, Dilution 1/5: crystals appeared at” value [9] was “appeared at 2 hours”. For the same molecule, the “Stability following dilution in saline, Dilution 1/10: crystals appeared at” value [9] was 2 h and the “Stability following dilution in saline, Dilution 1/20: crystals appeared at” value [9] was 3.5 h.
